≈ marks a conversion by molar mass, not a printed value.
What was measured:
NRK cells = assay: NRK cell IC50 estimation (cytotoxicity, crystal violet); format: cell-based; settings: 48 h incubation; for IC50: Rattus norvegicus, NRK, 48 h
Experimental: (§1) The NRK and Vero cell lines were routinely maintained in DMEM (Gibco) supplemented with 10% SFB (Natocor) and Penicillin/Streptomicin (100 Units/0.1mg/mL, Sigma) at 37 °C and 5% CO2 atmosphere. The trypomatigotes of T. cruzi strains CL Brener, Y, and RA were routinely maintained in Vero cells cultured in DMEM supplemented with 4% SFB and Penicillin/Streptomicin. The trypomastigotes of each strain were purified from infected Vero cells supernatants and used in the different assays.
1 × 10^5/mL NRK cells were grown overnight in a 96 multi-well plate. The culture medium was replaced by a culture medium containing increasing concentrations of hybrids, control drugs or vehicles, and cells incubated at 37 °C and 5% CO2 for 48 h. Next, cells were washed, fixed for 10 min with cold methanol (Sintorgan), and stained with violet crystal (Sigma 0.5% in methanol). After an exhaustive wash, cells were dried overnight. 10% acetic acid (Biopack) was added to each well, and the absorbance measured at 600 nm. Similarly, a standard curve was prepared (absorbance vs. increasing concentrations of NRK cells) to estimate the NRK IC50 using Graphpad Prism.

[1] = test system: T. cruzi CL Brener trypomastigotes; assay: Trypomastigote IC50 estimation, CL Brener strain; format: cell-based, Trypanosoma cruzi; settings: for Selectivity NRK/T. cruzi (SI): IC50NRK/IC50 parasite, CL Brener trypomastigotes; for T. cruzi CL Brener IC50 / IC50: trypomastigotes, 24 h incubation, IC50 ± SD (n = 3); for IC50: Trypanosoma cruzi, 24 h
Experimental: as §1
(§2) 2 × 10^6/mL trypomastigotes were incubated with different concentrations of the hybrids, control drug or vehicle, by triplicate at 37 °C and 5% CO2 for 24 h. Next, trypomastigotes were counted in a Neubauer chamber. The IC50 ± SD (n = 3) were estimated using the “Dose–Response” module in Graphpad Prism.

T. brucei = test system: T. brucei; design: method as in PMID 23816880; settings: compared with the commercial drug suramin; cited from earlier work
[2] = test system: T. cruzi Y (DTU II) trypomastigotes; assay: Trypomastigote IC50 estimation, Y strain; format: cell-based, Trypanosoma cruzi; settings: 24 h incubation; for IC50: Trypanosoma cruzi, 24 h
Experimental: as §1, §2

[3] = test system: T. cruzi RA (DTU VI) trypomastigotes; assay: Trypomastigote IC50 estimation, RA strain; format: cell-based, Trypanosoma cruzi; settings: 24 h incubation; for IC50: Trypanosoma cruzi, 24 h
Experimental: as §1, §2

[4] = test system: intracellular amastigotes of the Y strain; assay: Amastigote count in infected NRK cells; format: cell-based, Trypanosoma cruzi; settings: hybrid at trypomastigote IC50 for the Y strain, 48 h, compared to untreated infected cells
Source text: Not only the genetic diversity among strains should be taken into account while searching for new drugs. Differential susceptibility of the different life cycle stages of the parasite within the same strain [18] should be also considered. In this regard, Bz and Nf effectiveness against axenic epimastigotes and the intracellular stages of T. cruzi have been already reported. […] More importantly, given that in the chronic phase of Chagas disease, current chemotherapy is not efficient and that parasitemia is usually low, performing new drug screenings on the intracellular replicative stage of the parasite appears to be the better approach. To confirm their anti-parasitic activity, nine of the hybrids were evaluated against intracellular amastigotes of the Y strain at the IC50 found for trypomastigotes of the same strain. Briefly, trypomastigotes were incubated with NRK cells and left to infect for two hours. […] Forty-eight hours post infection, cells were fixed and stained, and amastigotes/100 cells were calculated.
Infections were performed as previously described. […] After 48 h of incubation, cells were fixed with 4% formalin, stained with DAPI and photographed in a fluorescence microscope (Olympus). The amastigotes/100 cells were determined counting 1000 cells from each well (3000 cells/compound) using the ImageJ cell counter plugin. […]

[5] = test system: trypomastigotes of the Y strain released from infected NRK cells; assay: Trypomastigote release assay; format: cell-based, Trypanosoma cruzi; settings: 72 hours of treatment then drug-free medium, vs non-treated control
Source text: To fully eliminate the intracellular parasite, a trypanocidal drug action is ideally desired. For trypanostatic drugs, a longer chemotherapy is required to allow the elimination of the intracellular parasite, since the anti-parasitic effect could be reversed upon removal of the drug. In order to characterize the antiparasitic features of the hybrids, our strategy was to remove the hybrids from the medium of infected NRK cells and let the infection develop. In this approach, after the two hour infection of NRK cells with trypomastigotes of the Y strain, compounds were added and left for 72 hours before being replaced with fresh medium without drugs. Six days post infection, the trypomastigotes released to the supernatant were quantified. […]
NRK cells were cultured and treated as described in Section 4.1. […] At day 6 pi, the released trypomastigotes in the supernatant of infected were counted using a Neubauer chamber.
In all cases, 3 independent experiments were done by triplicate. […] The mean ± SD of amastigotes/100 cells or trypomastigote released were calculated and analyzed with one-way ANOVA with Dunnett posttest performed with Graphpad Prism software.

Row | SMILES | NRK Cells IC50 (NRK cells) [µg/mL] | Selectivity NRK/T. cruzi (SI) [1] | T. cruzi CL Brener IC50 [1] [µg/mL] | trypanocidal activity against T. brucei, IC50 (T. brucei) | IC50 [2] [µg/mL] | IC50 (NRK cells) [µg/mL] | IC50 [3] [µg/mL] | T. cruzi Y (DTU II) IC50 [2] [µg/mL] | T. cruzi RA (DTU VI) IC50 [3] [µg/mL] | IC50 [1] [µg/mL] | Effect on intracellular amastigotes (amastigotes/100 cells) [4] | Trypomastigote count in the supernatant of infected cells at day six post infection [5]
1 | C=CC1CN2CCC1CC2C(O)c1cc(CCC(C)C2CCC3C4C(O)CC5CC(O)CCC5(C)C4CCC23C)nc2ccccc12 (stereo not drawn) [Hybrid 5h] | 0.67 ± 0.05 | 2.23 | 0.30 ± 0.00 | in the same range as the commercial drug suramin | – | – | – | – | – | – | – | –
2 | C=CC1CN2CCC1CC2C(O)c1cc(CCC(C)C2CCC3C4CCC5CC(OC(C)=O)CCC5(C)C4CCC23C)nc2ccc(OC)cc12 (stereo not drawn) [Hybrid 4a] | 1.41 ± 0.13 | 2.20 | 0.64 ± 0.15 | – | – | – | – | – | – | – | – | –
3 | C=CC1CN2CCC1CC2C(O)c1cc(CCC(C)C2CCC3C4CCC5CC(O)CCC5(C)C4CCC23C)nc2ccc(OC)cc12 (stereo not drawn) [Hybrid 5c] | – | – | 0.78 ± 0.11 | – | ≥ 2 | > 11 | 0.79 ± 0.19 (≈ 1.21 µM) | – | – | – | – | –
4 | C=CC1CN2CCC1CC2C(O)c1cc(CCC(C)C2CCC3C4C(OC(C)=O)CC5CC(OC(C)=O)CCC5(C)C4CCC23C)nc2ccccc12 (stereo not drawn) [Hybrid 4h] | 6.50 ± 0.28 | 9.28 | 0.70 ± 0.18 | in the same range as the commercial drug suramin | – | – | – | ≥2.00 | 1.50 ± 0.50 | – | – | –
5 | C=CC1CN2CCC1CC2C(O)c1cc(CCC(C)C2CCC3C4C(OC(C)=O)CC5CC(OC(C)=O)CCC5(C)C4CCC23C)nc2ccc(OC)cc12 (stereo not drawn) [Hybrid 4b] | – | 4.89 | – | – | – | 3.91 ± 0.29 (≈ 5.18 µM) | – | – | – | 0.8 ± 0.13 (≈ 1.06 µM) | – | –
6 | C=CC1CN2CCC1CC2C(O)c1cc(CCC(C)C2CCC3C4CCC5CC(OC(C)=O)CCC5(C)C4CCC23C)nc2ccccc12 (stereo not drawn) [Hybrid 4g] | 12.30 ± 0.81 | 9.46 | 1.30 ± 0.01 | – | 3.05 ± 0.71 (≈ 4.57 µM) | – | 1.1 ± 0.21 (≈ 1.65 µM) | – | – | – | – | –
7 | C=CC1CN2CCC1CC2C(O)c1cc(CCC(C)C2CCC3C4C(O)CC5CC(O)CCC5(C)C4CCC23C)nc2ccc(OC)cc12 (stereo not drawn) [Hybrid 5b] | 5.10 ± 0.76 | 5.67 | 0.90 ± 0.10 | in the same range as the commercial drug suramin | – | – | – | – | – | – | – | –
8 | C=CC1CN2CCC1CC2C(O)c1cc(CCC(C)C2CCC3C4C(OC(C)=O)CC5CC(OC(C)=O)CCC5(C)C4CCC23C)nc2ccccc12 (stereo not drawn) [Hybrid 4f] | – | 13.04 | – | in the same range as the commercial drug suramin | – | 6.69 ± 1.51 (≈ 9.23 µM) | – | 0.50 ± 0.03 | 0.25 ± 0.10 | 0.51 ± 0.06 (≈ 0.703 µM) | significant reduction in intracellular amastigotes | significantly lower than non-treated control
9 | C=CC1CN2CCC1CC2C(O)c1cc(CCC(C)C2CCC3C4CCC5CC(OC(C)=O)CCC5(C)C4CCC23C)nc2ccc(OC)cc12 (stereo not drawn) [Hybrid 4c] | 16.53 ± 0.18 | 15.30 | – | – | ≥ 1 | – | – | – | – | 1.08 ± 0.23 (≈ 1.55 µM) | – | –
10 | C=CC1CN2CCC1CC2C(O)c1cc(CCC(C)C2CCC3C4C(O)CC5CC(O)CCC5(C)C4CCC23C)nc2ccc(OC)cc12 (stereo not drawn) [Hybrid 5d] | 1.59 ± 0.54 | 3.98 | 0.40 ± 0.05 | in the same range as the commercial drug suramin | – | – | – | – | – | – | – | –
11 | O=C(Cn1ccnc1[N+](=O)[O-])NCc1ccccc1 [Bz, benznidazole, reference compound] | – | – | – | – | ≥ 15 | – | 2.5 ± 0.32 (≈ 9.61 µM) | – | – | 2.5 ± 0.01 (≈ 9.61 µM) | – | –
12 | C=CC1CN2CCC1CC2C(O)c1cc(CCC(C)C2CCC3C4CCC5CC(O)CCC5(C)C4CCC23C)nc2ccccc12 (stereo not drawn) [Hybrid 5e] | – | – | – | – | – | > 30 | – | – | – | 3.96 ± 2.69 (≈ 6.34 µM) | – | –
13 | C=CC1CN2CCC1CC2C(O)c1cc(CCC(C)C2CCC3C4C(O)CC5CC(O)CCC5(C)C4CCC23C)nc2ccccc12 (stereo not drawn) [Hybrid 5f] | 4.02 ± 0.55 | – | – | in the same range as the commercial drug suramin | 0.65 ± 0.07 (≈ 1.01 µM) | – | 0.31 ± 0.1 (≈ 0.484 µM) | – | – | 0.34 ± 0.03 (≈ 0.53 µM) | significant reduction in intracellular amastigotes | significantly lower than non-treated control
14 | C=CC1CN2CCC1CC2C(O)c1cc(CCC(C)C2CCC3C4CCC5CC(O)CCC5(C)C4CCC23C)nc2ccc(OC)cc12 (stereo not drawn) [Hybrid 5a] | 15.30 ± 4.04 | 4.12 | 3.71 ± 0.13 | – | – | – | – | – | – | – | – | –
15 | C=CC1CN2CCC1CC2C(O)c1cc(CCC(C)C2CCC3C4CCC5CC(O)CCC5(C)C4CCC23C)nc2ccccc12 (stereo not drawn) [Hybrid 5g] | 27.11 ± 4.54 | 10.58 | 2.56 ± 0.58 | – | 3.25 ± 0.67 (≈ 5.2 µM) | – | 3.03 ± 0.24 (≈ 4.85 µM) | – | – | – | – | –
16 | C=CC1CN2CCC1CC2C(O)c1cc(CCC(C)C2CCC3C4CCC5CC(OC(C)=O)CCC5(C)C4CCC23C)nc2ccccc12 (stereo not drawn) [Hybrid 4e] | – | 6.46 | – | – | – | 7.5 ± 0.29 (≈ 11.2 µM) | – | – | – | 1.16 ± 0.15 (≈ 1.74 µM) | – | –
17 | C=CC1CN2CCC1CC2C(O)c1cc(CCC(C)C2CCC3C4C(OC(C)=O)CC5CC(OC(C)=O)CCC5(C)C4CCC23C)nc2ccc(OC)cc12 (stereo not drawn) [Hybrid 4d] | 3.30 ± 0.08 | 4.58 | 0.72 ± 0.07 | in the same range as the commercial drug suramin | – | – | – | – | – | – | – | –
